Numbering of substitutions follows the chain as printed. Like-named read-outs stand apart in the source and are kept apart here.
What was measured:
[1] = target: T1, RET(KD: 658-1114 G810R) (Homo sapiens, UniProt P07949, G810R); assay: HiBiT-Degradation, RET G810R degradation assay (Nano-Glo HiBiT Lytic), 293T.165 cells; type: cell-based; settings: for Emax / DC50: 6.0 hours
T1 construct: 658-1114; expressed in transfected cells; host or cells: 293T.165 (293T cells, generated in-house)
T1 sequence (P07949 658-1114 G810R): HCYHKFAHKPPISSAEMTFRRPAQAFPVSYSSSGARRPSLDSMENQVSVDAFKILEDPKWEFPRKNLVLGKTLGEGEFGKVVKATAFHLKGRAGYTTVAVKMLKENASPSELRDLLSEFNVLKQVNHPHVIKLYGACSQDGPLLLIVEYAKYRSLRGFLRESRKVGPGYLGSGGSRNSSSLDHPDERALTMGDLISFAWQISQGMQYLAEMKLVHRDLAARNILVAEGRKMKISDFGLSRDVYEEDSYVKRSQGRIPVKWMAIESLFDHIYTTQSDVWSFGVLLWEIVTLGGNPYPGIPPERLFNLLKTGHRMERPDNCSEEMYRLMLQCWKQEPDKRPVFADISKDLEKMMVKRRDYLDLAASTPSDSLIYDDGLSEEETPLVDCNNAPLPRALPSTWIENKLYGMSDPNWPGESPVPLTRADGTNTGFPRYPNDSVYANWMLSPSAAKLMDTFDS
Method in brief: (§1)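 Degradation after 6 h compound exposure (top 10 μM, 11 half-log points, duplicates) measured by Nano-Glo HiBiT lytic luminescence. Cells: 293T.144 carrying wild-type and 293T.165 carrying G810R HiBiT-RET kinase domain; curves yield DC50 and Emax.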

[2] = target: T2, RET (658-1114) (Homo sapiens, UniProt P07949); assay: HiBiT-Degradation, RET wild-type degradation assay (Nano-Glo HiBiT Lytic), 293T.144 cells; type: cell-based; settings: for DC50 / Emax: 6.0 hours
T2 construct: 658-1114; expressed in transfected cells; host or cells: 293T.144 (293T cells, generated in-house)
T2 sequence (P07949 658-1114): T1 sequence (P07949 658-1114 G810R) with R153G
Method in brief: as §1

[3] = % remaining protein, read-out: 293T.165 RET(KD: 658-1114 G810R) 6.0 hours (Emax)
[4] = half-maximal degradation concentration, read-out: 293T.165 RET(KD: 658-1114 G810R) 6.0 hours (DC50)
[5] = RET G810R, read-out: HiBiT-Degradation 293T.165 RET(KD: 658-1114 G810R) 6.0 hours (DC50)
[6] = RET G810R, read-out: HiBiT-Degradation 293T.165 RET(KD: 658-1114 G810R) 6.0 hours (Emax)
[7] = RET wild-type, read-out: HiBiT-Degradation 293T.144 RET (658-1114) 6.0 hours (DC50)
[8] = RET wild-type, read-out: HiBiT-Degradation 293T.144 RET (658-1114) 6.0 hours (Emax)
[9] = % remaining protein, read-out: 293T.144 RET (658-1114) 6.0 hours (Emax)
[10] = half-maximal degradation concentration, read-out: 293T.144 RET (658-1114) 6.0 hours (DC50)
[11] = HiBiT-Degradation, read-out: 293T.165 RET(KD: 658-1114 G810R) 6.0 hours (DC50)
[12] = HiBiT-Degradation, read-out: 293T.144 RET (658-1114) 6.0 hours (DC50)
[13] = HiBiT-Degradation, read-out: 293T.144 RET (658-1114) 6.0 hours (Emax)

## COc1ccnc(CN2C3CC2CN(c2ccc(-c4cc(-c5cnn(C6CCN(C(=O)CN7CCC(c8ccc(NC9CCC(=O)NC9=O)cc8F)CC7)CC6)c5)cn5ncc(C#N)c45)cn2)C3)c1 (centres unmarked) [Compound 71, 6-[1-[1-[2-[4-[4-[(2,6-dioxo-3-piperidyl)amino]-2-fluoro-phenyl]-1-piperidyl]acetyl]-4-piperidyl]pyrazol-4-yl]-4-[6-[6-[(4-methoxy-2-pyridyl)methyl]-3,6-diazabicyclo[3.1.1]heptan-3-yl]-3-pyridyl]pyrazolo[1,5-a]pyridine-3-carbonitrile]
[1]; [3]
  Emax: < 30%
[1]; [4]
  DC50: < 100 nM
[1]; RET G810R
  HiBiT-Degradation 293T.165 RET(KD: 658-1114 G810R) 6.0 hours (IP) [nM]: ++++ (< 50 nM = ++++)
[1]; [5]
  DC50: < 100 nM
[1]; [6]
  Emax: < 30%
[2]; RET wild-type
  HiBiT-Degradation 293T.144 RET (658-1114) 6.0 hours (IP) [nM]: ++++ (< 50 nM = ++++)
[2]; [7]
  DC50: < 50 nM
[2]; [8]
  Emax: < 30%

## N#Cc1cnn2cc(-c3cnn(C4CCN(C(=O)CC5(O)CCN(c6ccc(NC7CCC(=O)NC7=O)cc6F)CC5)CC4)c3)nc(-c3ccc(N4CCN(C(=O)C5CCC5)CC4)nc3)c12 (centres unmarked) [Compound 112, 4-[6-[4-(cyclobutanecarbonyl)piperazin-1-yl]-3-pyridyl]-6-[1-[1-[2-[1-[4-[(2,6-dioxo-3-piperidyl)amino]-2-fluoro-phenyl]-4-hydroxy-4-piperidyl]acetyl]-4-piperidyl]pyrazol-4-yl]pyrazolo[1,5-a]pyrazine-3-carbonitrile]
[1]
  293T.165 RET(KD: 658-1114 G810R) 6.0 hours (IP) [nM]: ++++ (<50 nM = ++++)
[1]; [3]
  Emax: < 50%
[1]; [4]
  DC50: < 50 nM
[2]
  293T.144 RET (658-1114) 6.0 hours (IP) [nM]: ++++ (<50 nM = ++++)
[2]; [9]
  Emax: < 30%
[2]; [10]
  DC50: < 50 nM

## CCC1(C(=O)NC2CCC2)CCN(c2ccc(-c3cc(-c4cnn(C5CCN(C(=O)CN6CCC(c7ccc(NC8CCC(=O)NC8=O)cc7F)CC6)CC5)c4)cn4ncc(C#N)c34)cn2)CC1 (centres unmarked) [Compound 8, 1-(5-(3-Cyano-6-(1-(1-(2-(4-(4-((2,6-dioxopiperidin-3-yl)amino)-2-fluorophenyl)piperidin-1-yl)acetyl)piperidin-4-yl)-1H-pyrazol-4-yl)pyrazolo[1,5-a]pyridin-4-yl)pyridin-2-yl)-N-cyclobutyl-4-ethylpiperidine-4-carboxamide]
[1]; [3]
  Emax: < 30%
[1]; [4]
  DC50: < 50 nM
[1]; HiBiT-Degradation
  293T.165 RET(KD: 658-1114 G810R) 6.0 hours (Emax): ++++ (< 30% = ++++)
  293T.165 RET(KD: 658-1114 G810R) 6.0 hours (IP) [nM]: ++++ (< 50 nM = ++++)
[1]; [11]
  DC50: < 50 nM
[2]; HiBiT-Degradation
  293T.144 RET (658-1114) 6.0 hours (IP) [nM]: ++++ (< 50 nM = ++++)
[2]; [12]
  DC50: < 50 nM
[2]; [13]
  Emax: < 30%

## CCC1(C(=O)NC2CCC2)CCN(c2ccc(-c3nc(-c4cnn(C5CCN(C(=O)CC6(O)CCN(c7ccc(NC8CCC(=O)NC8=O)cc7F)CC6)CC5)c4)cn4ncc(C#N)c34)cn2)CC1 (centres unmarked) [Compound 81, 1-[5-[3-cyano-6-[1-[1-[2-[1-[4-[(2,6-dioxo-3-piperidyl)amino]-2-fluoro-phenyl]-4-hydroxy-4-piperidyl]acetyl]-4-piperidyl]pyrazol-4-yl]pyrazolo[1,5-a]pyrazin-4-yl]-2-pyridyl]-N-cyclobutyl-4-ethyl-piperidine-4-carboxamide]
[1]; [3]
  Emax: < 30%
[1]; [4]
  DC50: < 50 nM
[1]; RET G810R
  HiBiT-Degradation 293T.165 RET(KD: 658-1114 G810R) 6.0 hours (IP) [nM]: ++++ (< 50 nM = ++++)
[1]; [5]
  DC50: < 50 nM
[1]; [6]
  Emax: < 30%
[2]; RET wild-type
  HiBiT-Degradation 293T.144 RET (658-1114) 6.0 hours (IP) [nM]: ++++ (< 50 nM = ++++)
[2]; [7]
  DC50: < 50 nM
[2]; [8]
  Emax: < 30%

## N#Cc1cnn2cc(-c3cnn([C@H]4CC[C@H](N5CCN(c6c(F)cc(NC7CCC(=O)NC7=O)cc6F)CC5)CC4)c3)nc(-c3ccc(N4CC5CC(C4)N5CC4CCC(F)(F)CC4)nc3)c12 (some centres unmarked) [Compound 214, 4-[6-[6-[(4,4-difluorocyclohexyl)methyl]-3,6-diazabicyclo[3.1.1]heptan-3-yl]-3-pyridyl]-6-[1-[4-[4-[4-[(2,6-dioxo-3-piperidyl)amino]-2,6-difluoro-phenyl]piperazin-1-yl]cyclohexyl]pyrazol-4-yl]pyrazolo[1,5-a]pyrazine-3-carbonitrile]
[1]
  293T.165 RET(KD: 658-1114 G810R) 6.0 hours (IP) [nM]: +++ (<100 nM = +++)
[1]; [3]
  Emax: < 30%
[1]; [4]
  DC50: < 100 nM
[2]
  293T.144 RET (658-1114) 6.0 hours (IP) [nM]: ++++ (<50 nM = ++++)
[2]; [9]
  Emax: < 30%
[2]; [10]
  DC50: < 50 nM

## CCC1(C(=O)NC2CCC2)CCN(c2ccc(-c3nc(-c4cnn([C@H]5CC[C@H](N6CCC(c7ccc(N[C@@H]8CCC(=O)NC8=O)cc7Cl)CC6)CC5)c4)cn4ncc(C#N)c34)cn2)CC1 (single isomer, unassigned) [Compound 131]
[1]
  293T.165 RET(KD: 658-1114 G810R) 6.0 hours (IP) [nM]: ++++ (<50 nM = ++++)
[1]; [3]
  Emax: < 30%
[1]; [4]
  DC50: < 50 nM
[2]
  293T.144 RET (658-1114) 6.0 hours (IP) [nM]: ++++ (<50 nM = ++++)
[2]; [9]
  Emax: < 30%
[2]; [10]
  DC50: < 50 nM

## CC(=O)N1CCN(c2ccc(-c3cc(-c4cnn(C5CCN(C(=O)CN6CCC(c7ccc(NC8CCC(=O)NC8=O)cc7)CC6)CC5)c4)cn4ncc(C#N)c34)cn2)CC1 (centres unmarked) [Compound 42, 4-[6-(4-acetylpiperazin-1-yl)-3-pyridyl]-6-[1-[1-[2-[4-[4-[(2,6-dioxo-3-piperidyl)amino]phenyl]-1-piperidyl]acetyl]-4-piperidyl]pyrazol-4-yl]pyrazolo[1,5-a]pyridine-3-carbonitrile]
[1]; [3]
  Emax: < 50%
[1]; [4]
  DC50: < 100 nM
[1]; HiBiT-Degradation
  293T.165 RET(KD: 658-1114 G810R) 6.0 hours (Emax): +++ (<50% = +++)
  293T.165 RET(KD: 658-1114 G810R) 6.0 hours (IP) [nM]: ++++ (< 50 nM = ++++)
[1]; [11]
  DC50: < 100 nM
[2]; HiBiT-Degradation
  293T.144 RET (658-1114) 6.0 hours (IP) [nM]: ++++ (< 50 nM = ++++)
[2]; [12]
  DC50: < 50 nM
[2]; [13]
  Emax: < 30%

## CCC1(C(=O)NC2CCC2)CCN(c2ccc(-c3nc(-c4cnn([C@H]5CC[C@H](N6CCN(c7cc(OC)c(N[C@@H]8CCC(=O)NC8=O)cc7F)CC6)CC5)c4)cn4ncc(C#N)c34)cn2)CC1 (single isomer, unassigned) [Compound 135]
[1]
  293T.165 RET(KD: 658-1114 G810R) 6.0 hours (IP) [nM]: ++++ (<50 nM = ++++)
[1]; [3]
  Emax: < 30%
[1]; [4]
  DC50: < 50 nM
[2]
  293T.144 RET (658-1114) 6.0 hours (IP) [nM]: ++++ (<50 nM = ++++)
[2]; [9]
  Emax: < 30%
[2]; [10]
  DC50: < 50 nM

## CC(C)(C)OC(=O)N1[C@@H]2COC[C@H]1CN(c1ccc(-c3nc(-c4cnn([C@H]5CC[C@@H](N6CCN(c7ccc(NC8CCC(=O)NC8=O)cc7F)CC6)CC5)c4)cn4ncc(C#N)c34)cn1)C2 (single isomer, unassigned) [Compound 159]
[1]
  293T.165 RET(KD: 658-1114 G810R) 6.0 hours (IP) [nM]: ++++ (<50 nM = ++++)
[1]; [3]
  Emax: < 30%
[1]; [4]
  DC50: < 50 nM
[2]
  293T.144 RET (658-1114) 6.0 hours (IP) [nM]: ++++ (<50 nM = ++++)
[2]; [9]
  Emax: < 30%
[2]; [10]
  DC50: < 50 nM

## CCC1(C(=O)NC2CCC2)CCN(c2ccc(-c3nc(-c4cnn([C@H]5C[C@H](CN6CCN(c7ccc(N[C@H]8CCC(=O)NC8=O)cc7F)CC6)C5)c4)cn4ncc(C#N)c34)cn2)CC1 [Compound 188, 1-[5-[3-cyano-6-[1-[3-[[4-[4-[[(3S)-2,6-dioxo-3-piperidyl]amino]-2-fluoro-phenyl]piperazin-1-yl]methyl]cyclobutyl]pyrazol-4-yl]pyrazolo[1,5-a]pyrazin-4-yl]-2-pyridyl]-N-cyclobutyl-4-ethyl-piperidine-4-carboxamide]
[1]
  293T.165 RET(KD: 658-1114 G810R) 6.0 hours (IP) [nM]: ++++ (<50 nM = ++++)
[1]; [3]
  Emax: < 50%
[1]; [4]
  DC50: < 50 nM
[2]
  293T.144 RET (658-1114) 6.0 hours (IP) [nM]: ++++ (<50 nM = ++++)
[2]; [9]
  Emax: < 30%
[2]; [10]
  DC50: < 50 nM

Source: US12661410B2, “Compounds for targeted degradation of RET” (C4 Therapeutics, Inc., priority 2020, dated 2026)
